We go through seven compounds from patent US20250120989A1, “BRIDGED TRICYCLIC CARBAMOYLPYRIDONE COMPOUNDS AND USES THEREOF” (priority 2023, published 2025).

The nature of this series: in vitro. To be noted: human, uninfected MT-4 cells.
In the case of `CC[C@H](OP(=O)(O)O)[C@H](C)OC(=O)OCOc1c2n(cc(C(=O)NCc3ccc(F)cc3F)c1=O)[C@@H]1CN(C2=O)[C@@H](C)CC[C@]12CC(C)=NO2` [Compound 72, (((3′S,5S,7′R)-10′-((2,4-difluorobenzyl)carbamoyl)-3,3′-dimethyl-1′,11′-dioxo-1′,4′,5′,11′-tetrahydro-3′H,4H,7′H-spiro[isoxazole-5,6′-[2,7]methanopyrido[1,2-a][1,4]diazonin]-12′-yl)oxy)methyl ((2S,3S)-3-(phosphonooxy)pentan-2-yl) carbonate], it took 27.2 µM to reach half-maximal cytotoxicity (CC50 at 5 days).

Take `COC1=NO[C@@]2(CC[C@H](C)N3C[C@H]2n2cc(C(=O)NCc4ccc(F)cc4F)c(=O)c(OCOC(=O)OC[C@@H](OP(=O)(O)O)C(C)C)c2C3=O)C1` [Compound 82, (((3′S,5S,7′R)-10′-((2,4-difluorobenzyl)carbamoyl)-3-methoxy-3′-methyl-1′,11′-dioxo-1′,4′,5′,11′-tetrahydro-3′H,4H,7′H-spiro[isoxazole-5,6′-[2,7]methanopyrido[1,2-a][1,4]diazonin]-12′-yl)oxy)methyl ((S)-3-methyl-2-(phosphonooxy)butyl) carbonate]: the cytotoxic concentration (CC50) (as a rule, the concentration at which the toxic effect on the cells reaches its halfway point) at 5 days was 39.7 µM.

On to `CC1=NO[C@@]2(CC[C@H](C)N3C[C@H]2n2cc(C(=O)NCc4ccc(F)cc4F)c(=O)c(OCOC(=O)N(C)CC(=O)O)c2C3=O)C1` [Compound 45, N-(((((3′S,5S,7′R)-10′-((2,4-difluorobenzyl)carbamoyl)-3,3′-dimethyl-1′,11′-dioxo-1′,4′,5′,11′-tetrahydro-3′H,4H,7′H-spiro[isoxazole-5,6′-[2,7]methanopyrido[1,2-a][1,4]diazonin]-12′-yl)oxy)methoxy)carbonyl)-N-methylglycine], for which half-maximal cytotoxicity (CC50 at 5 days) was put at 50 µM.

`CC[C@@H](OP(=O)(O)O)[C@H](C)OC(=O)OCOc1c2n(cc(C(=O)NCc3ccc(F)cc3F)c1=O)[C@@H]1CN(C2=O)[C@@H](C)CC[C@]12CC(OC)=NO2` [Compound 75, (((3′S,5S,7′R)-10′-((2,4-difluorobenzyl)carbamoyl)-3-methoxy-3′-methyl-1′,11′-dioxo-1′,4′,5′,11′-tetrahydro-3′H,4H,7′H-spiro[isoxazole-5,6′-[2,7]methanopyrido[1,2-a][1,4]diazonin]-12′-yl)oxy)methyl ((2S,3R)-3-(phosphonooxy)pentan-2-yl) carbonate] gave a CC50 at 5 days of 34.3 µM.

The compound `COC1=NO[C@@]2(CC[C@H](C)N3C[C@H]2n2cc(C(=O)NCc4ccc(F)cc4F)c(=O)c(OCOC(=O)OC[C@H](OP(=O)(O)O)C(C)C)c2C3=O)C1` [Compound 81, (((3′S,5S,7′R)-10′-((2,4-difluorobenzyl)carbamoyl)-3-methoxy-3′-methyl-1′,11′-dioxo-1′,4′,5′,11′-tetrahydro-3′H,4H,7′H-spiro[isoxazole-5,6′-[2,7]methanopyrido[1,2-a][1,4]diazonin]-12′-yl)oxy)methyl ((R)-3-methyl-2-(phosphonooxy)butyl) carbonate] returned a cytotoxic concentration (CC50) at 5 days of 36.9 µM.

The compound `CC1=NO[C@@]2(CC[C@H](C)N3C[C@H]2n2cc(C(=O)NCc4ccc(F)cc4F)c(=O)c(OCOC(=O)OCCN(C)C)c2C3=O)C1` [Compound 14, (((3′S,5S,7′R)-10′-((2,4-difluorobenzyl)carbamoyl)-3,3′-dimethyl-1′,11′-dioxo-1′,4′,5′,11′-tetrahydro-3′H,4H,7′H-spiro[isoxazole-5,6′-[2,7]methanopyrido[1,2-a][1,4]diazonin]-12′-yl)oxy)methyl (2-(dimethylamino)ethyl) carbonate] yielded a CC50 at 5 days of 17.1 µM.

Compound `CC[C@H](OP(=O)(O)O)[C@@H](C)OC(=O)OCOc1c2n(cc(C(=O)NCc3ccc(F)cc3F)c1=O)[C@@H]1CN(C2=O)[C@@H](C)CC[C@]12CC(OC)=NO2` [Compound 79, (((3′S,5S,7′R)-10′-((2,4-difluorobenzyl)carbamoyl)-3-methoxy-3′-methyl-1′,11′-dioxo-1′,4′,5′,11′-tetrahydro-3′H,4H,7′H-spiro[isoxazole-5,6′-[2,7]methanopyrido[1,2-a][1,4]diazonin]-12′-yl)oxy)methyl ((2R,3S)-3-(phosphonooxy)pentan-2-yl) carbonate] displayed a CC50 at 5 days of 45.7 µM.
